Source: patent publication US10456387B2, “Phacetoperane for treating of attention deficit hyperactivity disorder” (NLS PHARMA AG, priority 2011, dated 2019)

What was measured:
[1] = test system: young Wistar rats; experiment: T-maze test, a model of ADHD (ability to wait / impulsiveness); format: in vivo, rat; conditions: for Efficacy compared with methylphenidate in the ability to wait: BLK-010 1 mg/kg IP vs methylphenidate 3 mg/kg IP; for Effect on ability to wait relative to the control: administered IP before the test, BLK-010 1 mg/kg; for Effect on ability to wait relative to the control / Mean, Medication (choices of the large reward deferred by 30 s) / Mean, Cont-Post (choices of the large reward deferred by 30 s): methylphenidate 3 mg/kg; for Mean, Medication (choices of the large reward deferred by 30 s): medication sessions, IP 30 min before test; for Mean, Cont-Post (choices of the large reward deferred by 30 s): post-medication control sessions, one day after medication session 2, phacetoperane 1 mg/kg IP; for Mean, Cont-Pre (choices of the large reward deferred by 30 s): pre-medication control sessions, before any drug, male juvenile Wistar rats, n = 6, sessions of 5 tests
[2] = test system: young Wistar rats; conditions: background description of the model; cited from earlier work

| Structure (SMILES) | Efficacy compared with methylphenidate in the ability to wait [1] | Efficacy compared with methylphenidate in the ability to wait ([1]; listed as BLK-010) | Improvement of impulsiveness, animals responding ([1]; BLK-010 1 mg/kg IP, n = 6) | Effect on ability to wait relative to the control [1] | Mean, Medication (choices of the large reward deferred by 30 s) ([1]; phacetoperane 1 mg/kg, n = 6) | Habituation (before and after treatment) ([1]; phacetoperane 1 mg/kg) | Mean, Cont-Post (choices of the large reward deferred by 30 s) ([1]; n = 6) | Mean, Cont-Pre (choices of the large reward deferred by 30 s) [1] | Effect on number of times the large but deferred reward is chosen [2] |
| --- | --- | --- | --- | --- | --- | --- | --- | --- | --- |
| CC(=O)OC(c1ccccc1)C1CCCCN1 (racemic) [Phacetoperane, threo diastereoisomer of alpha-phenyl-2-piperidinemethanol acetate] | always found to be more effective than methylphenidate | significantly and statistically more effective than methylphenidate | found in all the animals | improve the ability to wait | 4.17 | does not lead to any habituation | 0.33 | 1.17 |  |
| COC(=O)C(c1ccccc1)C1CCCCN1 (stereo not shown) [Methylphenidate, methylphenidate] |  |  |  | improve the ability to wait | 3.67 |  | 0.83 | 1.17 | seems to increase the number of times the large but deferred reward is chosen |
